Data reported in US20030096020A1, “Novel herbal composition for the management of bronchial asthma and a process of manufacturing the same” (priority 2001, published 2003).

Test system: mast cells
Test: Active anaphylaxis method to evaluate mast cell count
Format: in vivo, rat
Settings: sensitized rats

SMILES: C[C@]12C=CC(=O)C=C1CC[C@@H]1[C@@H]2[C@@H](O)C[C@@]2(C)[C@H]1CC[C@]2(O)C(=O)CO [Standard, Prednisolone]
- Degranulation (% mean +/- SEM) of mast cells, 21st day sacrifice, central zone (no treatment day 14 to 21, 21st day sacrifice, central zone): 29.4 ± 7.2 %
- Degranulation (% mean +/- SEM) of mast cells, 21st day sacrifice, peripheral zone (no treatment day 14 to 21, 21st day sacrifice, peripheral zone): 37.51 ± 8.3 %
- Degranulation (% mean +/- SEM) of mast cells, 13th day sacrifice, central zone (oral treatment day 5 to 13, 13th day sacrifice, central zone): 8.4 ± 2.0 %
- Degranulation (% mean +/- SEM) of mast cells, 13th day sacrifice, peripheral zone (oral treatment day 5 to 13, 13th day sacrifice, peripheral zone): 8.7 ± 1.621 %
